For 23 molecules, EC50 results are on record in patent publication US12595243B2, “Modulators of extracellular signal-regulated kinase” (GEN1E LIFESCIENCES INC., priority 2023, dated 2026).

Read-outs that look alike come from different tables or passages of the source.

One data set has as its system melanoma cell line A375. Kind of data set: Cytotoxicity in cancer cell lines (CellTiter-Glo), A375. The settings on record: A375 cells, mean of three tests.
The subject of data set [1] is human pancreatic carcinoma cell line PL-45. As to the kind of experiment: Cytotoxicity in cancer cell lines (CellTiter-Glo), PL-45. The settings on record: PL45, 48 h, read-out: Cytotoxicity EC50 at 48 hours, PL-45.
Protocol: (§2) The cytotoxicity of test compounds was determined for several cell lines including melanoma cell line RPMI-7951, melanoma cell line Sk-Mel-28, melanoma cell line A375, melanoma cell line U87, glioblastoma cell line U87, immortalized human T lymphocyte Jurkat cells, and human pancreatic carcinoma cell line PL-45.
(§3) All cells were obtained from ATCC. RPMI, DMEM, EMEM and pen/strep were obtained from Invitrogen. Normocin® was obtained from InvivoGen. FBS was obtained from Gibco. Cell viability reagent Cell-titer glow was obtained from Promega.
(§4) The growth media for A375 and PL45 cells was DMEM supplemented with antibiotic/anti-mycotic pen/strep and Normocin® (InvivoGen) and 10% FBS.
(§5) Ten (10) mM solutions of each of the test compounds were prepared in dimethyl sulfoxide (DMSO) and serially diluted in DMSO to provide solutions having concentrations of the test compound of 3 mM, 1 mM, 0.3 mM, 0.1 mM, 0.03 mM, or 0.01 mM. Forty (40) μL of each of the solutions were further diluted to 400 μL in the cell specific complete media to provide 10× stock solutions having a 1 mM, 300 μM, 100 μM, 30 μM, 10 μM, 3 μM, 1 μM, or 0.3 μM of the test compound. Ten (10) μL of DMSO was diluted to 400 μL in the complete media and used as the 0 μM control.
(§6) For the cytotoxicity studies, all cells were grown in their respective complete media. Confluent cells were harvested and plated into two 96-well tissue culture treated plates at 5,000-8,000 cells/wells in 180 μL media. Twenty (20) μL of each of the 10× stock solutions were added to the wells and mixed.
(§7) After incubating for 24 h, media was aspirated out and replaced with 180 μL/well of the fresh media and 20 μL/well of the 10× stock solutions in duplicate wells in duplicate plates (Plates 1 and 2; and 3 and 4) and in quadruplicate wells (Plate 5) were added, mixed and cultured for 48 hours. The final concentrations of each test compound were 100 μM, 30 μM, 10 μM, 3 μM, 1 μM, 0.3 μM, 0.1 μM and 0 μM.
(§8) After 48 hours and/or 72 hours following addition of the test compounds, one plate each was removed from the incubator, the media aspirated out, 100 μL of CellTiter-Glo® reagent added to each well, and the resulting luminescent signals measured using a VICTOR-2® plate reader.
(§9) The data from the plate reader were exported to GraphPad (Prism) and data processed using non-linear regression and EC50 value determined.
The subject of data set [2] is melanoma cell line Sk-Mel-28. Kind of data set: Cytotoxicity in cancer cell lines (CellTiter-Glo), Sk-Mel-28. The class given is cell-based. The settings on record: Homo sapiens, Sk-Mel-28 cells, mean of three tests. An excerpt: (§1) All cells were obtained from ATCC. […] Normocin® was obtained from InvivoGen. FBS was obtained from Gibco. […] All test compounds were synthesized as described herein.

Data set [3] in a line: Cytotoxicity in primary cells (CellTiter-Glo), PBMC. The class given is cell-based. The settings on record: mean of three tests.
Excerpt: as §1

Data set [4] concerns glioblastoma cell line U87. Kind of data set: Cytotoxicity in cancer cell lines (CellTiter-Glo), U87. The format is cell-based. The settings on record: Homo sapiens, U-87 MG, U87 cells, mean of three tests.
Excerpt: as §1

For data set [5], the system named is immortalized human T lymphocyte Jurkat cells. As to the kind of experiment: Cytotoxicity in cancer cell lines (CellTiter-Glo), Jurkat. The format is cell-based. The settings on record: Jurkat cells, mean of three tests.
Excerpt: as §1

Data set [6] concerns melanoma cell line RPMI-7951. As to the kind of experiment: Cytotoxicity in cancer cell lines (CellTiter-Glo), RPMI-7951. The class given is cell-based. The settings on record: Homo sapiens.
Excerpt: as §1

[7] abbreviates: Homo sapiens, A-375, 48 h, read-out: Cytotoxicity EC50 at 48 hours, A375, 48 h.
[8] abbreviates: Homo sapiens, A-375, 72 h, read-out: Cytotoxicity EC50 at 72 hours, A375, 72 h.
[9] abbreviates: SK-MEL-28, 48 h, 48 h, read-out: Cytotoxicity EC50 at 48 hours, Sk mel.
Setting [10] is: SK-MEL-28, 72 h, 72 h, read-out: Cytotoxicity EC50 at 72 hours, Sk mel.
Where [11] appears, read: 48 h, read-out: Cytotoxicity EC50 at 48 hours, U87.
[12] abbreviates: 72 h, read-out: Cytotoxicity EC50 at 72 hours, U87.
[13] abbreviates: 48 h, read-out: Cytotoxicity EC50 at 48 hours, Jurkat.
[14] abbreviates: 72 h, read-out: Cytotoxicity EC50 at 72 hours, Jurkat.
Setting [15] is: RPMI-7951, 48 h, read-out: Cytotoxicity EC50 at 48 hours, RPMI.
Setting [16] is: RPMI-7951, 72 h, read-out: Cytotoxicity EC50 at 72 hours, RPMI.
Where [17] appears, read: read-out: Cytotoxicity EC50 at 48 hours, A375, 48 h.

Protocol for melanoma cell line A375: as §2, §3, §4, §5, §6, §7, §8, §9

`O=S1(=O)C=CC(OS(=O)(=O)c2ccc3ccccc3c2)C1` (stereo not drawn) [(1), 1,1-dioxido-2,3-dihydrothiophen-3-yl naphthalene-2-sulfonate]: the EC50 in the data set with melanoma cell line A375 (setting [7]) worked out at 4 µM; with melanoma cell line A375 (setting [8]), 0.8 µM; in data set [1], 2.1 µM; in data set [2] (setting [9]) it was 4 µM; in data set [2] (setting [10]), 0.3 µM; in data set [4] (setting [11]), 1 µM. For the same molecule, the concentration giving a half-maximal response (EC50) in data set [4] (setting [12]) was found to be 4 µM; in data set [5] (setting [13]), 3 µM; in data set [5] (setting [14]), 5 µM; in data set [6] (setting [15]) it was 1 µM; in data set [6] (setting [16]) it was 4 µM. The response in data set [3] was half-maximal at 0.4 µM (EC50 at 48 h). In data set [3], this molecule yielded a 50% effective concentration (EC50) at 72 h of 0.4 µM.
In the case of `O=S1(=O)C=CC(OS(=O)(=O)c2ccc(-c3ccccc3)cc2)C1` (stereo not drawn) [(17), 1,1-dioxido-2,3-dihydrothiophen-3-yl [1,1′-biphenyl]-4-sulfonate], the EC50 in the data set on melanoma cell line A375 (setting [8]) worked out at 10 µM; in the data set on melanoma cell line A375 (setting [17]) it was 2.6 µM; in data set [2] (setting [9]), 3.2 µM; in data set [2] (setting [10]) it was 0.8 µM; in data set [4] (setting [11]), 2 µM; in data set [4] (setting [12]) it was 0.9 µM. Further, the EC50 in data set [5] (setting [13]) came to 9 µM; in data set [5] (setting [14]), 2 µM; in data set [6] (setting [15]), 1 µM; in data set [6] (setting [16]), 0.4 µM. For the same molecule, the EC50 at 48 h in data set [3] was determined as 0.5 µM. In data set [3], it took 0.5 µM to reach a half-maximal effect (EC50 at 72 h).
`O=S1(=O)C=CC(OS(=O)(=O)c2ccc(Oc3ccccc3)cc2)C1` (stereo not drawn) [(18), 1,1-dioxido-2,3-dihydrothiophen-3-yl 4-phenoxybenzenesulfonate]: the EC50 in the data set with melanoma cell line A375 (setting [7]) was 2 µM; in data set [2] (setting [9]), 2 µM; in data set [2] (setting [10]) it was 3 µM; in data set [4] (setting [11]), 1 µM. Besides, the EC50 at 48 h in data set [3] worked out at 0.2 µM. This molecule had an EC50 at 72 h in data set [3] of 21 µM.
Consider `O=C(OC1C=CS(=O)(=O)C1)c1ccc(-c2ccccc2)cc1` (stereo not drawn) [(24), 1,1-dioxido-2,3-dihydrothiophen-3-yl [1,1′-biphenyl]-4-carboxylate], for which the EC50 with melanoma cell line A375 (setting [7]) was above 100 µM; in data set [1], 49 µM.
The matching figures for `O=S1(=O)C=CC(OS(=O)(=O)c2cccc(Oc3ccccc3)c2)C1` (stereo not drawn) [(25), 1,1-dioxido-2,3-dihydrothiophen-3-yl 3-phenoxybenzenesulfonate]: 6 µM and 0.9 µM.
The matching figures for `O=S1(=O)C=CC(OS(=O)(=O)c2cccc(-c3ccccc3)c2)C1` (stereo not drawn) [(26), 1,1-dioxido-2,3-dihydrothiophen-3-yl [1,1′-biphenyl]-3-sulfonate]: 7 µM and 1 µM.
The matching figures for `O=S1(=O)C=CC(OS(=O)(=O)c2ccc(Cc3ccccc3)cc2)C1` (stereo not drawn) [(28), 1,1-dioxido-2,3-dihydrothiophen-3-yl 4-benzylbenzenesulfonate]: 14 µM and 0.9 µM.
For the molecule `O=S1(=O)C=CC(OS(=O)(=O)c2ccc(COc3ccccc3)cc2)C1` (stereo not drawn) [(29), 1,1-dioxido-2,3-dihydrothiophen-3-yl 4-(phenoxymethyl)benzenesulfonate], the values for the EC50 (in the data set with melanoma cell line A375 (setting [7]); in data set [1]) were 10 µM and 1 µM, respectively.
For `COS(=O)(=O)c1ccc2ccccc2c1` [(30), methyl naphthalene-2-sulfonate] the same measures were above 100 µM and 8.8 µM.
Regarding `O=S1(=O)C=CC(OS(=O)(=O)c2ccc(-c3ccccc3)cc2)C1` (stereo not drawn) [(33), 1,1-dioxido-2,3-dihydrothiophen-3-yl [1,1′-biphenyl]-4-sulfonate], the values for the EC50 (in the data set with melanoma cell line A375 (setting [17]); in data set [1]) were 1 µM and 2.3 µM, respectively.
In the case of `O=S1(=O)C=CC(OS(=O)(=O)c2ccc(C3CCCCC3)cc2)C1` (stereo not drawn) [(34), 1,1-dioxido-2,3-dihydrothiophen-3-yl 4-cyclohexylbenzenesulfonate], the EC50 in the data set with melanoma cell line A375 (setting [7]) came out at 1.5 µM; in data set [1], 0.9 µM.
`O=S1(=O)C=CC(OS(=O)(=O)c2cccc(C3CCCCC3)c2)C1` (stereo not drawn) [(35), 1,1-dioxido-2,3-dihydrothiophen-3-yl 3-cyclohexylbenzenesulfonate]: the EC50 in the data set with melanoma cell line A375 (setting [7]) was 1 µM; in data set [1], 1.2 µM.
In the case of `O=S1(=O)C=CC(OS(=O)(=O)c2ccc(OC3CCCCC3)cc2)C1` (stereo not drawn) [(36), 1,1-dioxido-2,3-dihydrothiophen-3-yl 4-(cyclohexyloxy)benzenesulfonate], the EC50 was 4.3 µM in the data set with melanoma cell line A375 (setting [7]) and 2.1 µM in data set [1].
The matching figures for `O=S1(=O)C=CC(OS(=O)(=O)c2cccc(OC3CCCCC3)c2)C1` (stereo not drawn) [(37), 1,1-dioxido-2,3-dihydrothiophen-3-yl 3-(cyclohexyloxy)benzenesulfonate]: 2.8 µM and 1.6 µM.
The matching figures for `O=C(c1ccccc1)c1ccc(S(=O)(=O)OC2C=CS(=O)(=O)C2)cc1` (stereo not drawn) [(38), 1,1-dioxido-2,3-dihydrothiophen-3-yl 4-benzoylbenzenesulfonate]: 0.2 µM and 0.5 µM.
For `O=S1(=O)C=CC(OS(=O)(=O)c2ccc(C(O)c3ccccc3)cc2)C1` (stereo not drawn) [(39), 1,1-dioxido-2,3-dihydrothiophen-3-yl 4-(hydroxy(phenyl)methyl)benzenesulfonate] the same measures were 1.3 µM and 1.5 µM.
On to `Cc1cc(Oc2ccccc2)ccc1S(=O)(=O)OC1C=CS(=O)(=O)C1` (stereo not drawn) [(40), 1,1-dioxido-2,3-dihydrothiophen-3-yl 2-methyl-4-phenoxybenzenesulfonate], for which the values for the concentration giving a half-maximal response (EC50) (in the data set on melanoma cell line A375 (setting [7]); in data set [1]) were 0.3 µM and 0.2 µM, respectively.
As to `COc1cc(Oc2ccccc2)ccc1S(=O)(=O)OC1C=CS(=O)(=O)C1` (stereo not drawn) [(41), 1,1-dioxido-2,3-dihydrothiophen-3-yl 2-methoxy-4-phenoxybenzenesulfonate], the EC50 turned out to be 0.6 µM in the data set with melanoma cell line A375 (setting [7]) and 0.5 µM in data set [1].
The matching figures for `Cc1cc(S(=O)(=O)OC2C=CS(=O)(=O)C2)ccc1Oc1ccccc1` (stereo not drawn) [(42)]: 0.5 µM and 1.2 µM.
For `COc1cc(S(=O)(=O)OC2C=CS(=O)(=O)C2)ccc1Oc1ccccc1` (stereo not drawn) [(43), 1,1-dioxido-2,3-dihydrothiophen-3-yl 3-methoxy-4-phenoxybenzenesulfonate] the same measures were 3.12 µM and 0.61 µM.
For `O=S1(=O)C=CC(OS(=O)(=O)c2ccc(Sc3ccccc3)cc2)C1` (stereo not drawn) [(44), 1,1-dioxido-2,3-dihydrothiophen-3-yl 4-(phenylthio)benzenesulfonate] the same measures were 3.21 µM and 0.8 µM.
In the case of `O=S1(=O)C=CC(OS(=O)(=O)c2ccc(S(=O)(=O)c3ccccc3)cc2)C1` (stereo not drawn) [(45), 1,1-dioxido-2,3-dihydrothiophen-3-yl 4-(phenylsulfonyl)benzenesulfonate], the results for the EC50 (in the data set on melanoma cell line A375 (setting [7]); in data set [1]) were 25 µM and 2.4 µM, respectively.
Turning to `CC(C)Nc1cc(-c2c[nH]c(C(=O)N[C@H](CO)c3cccc(Cl)c3)c2)c(Cl)cn1` [Ulixertinib, ulixertinib, reference compound], the concentration giving a half-maximal response (EC50) in the data set on melanoma cell line A375 (setting [7]) was found to be 0.6 µM; in data set [1] it was 14 µM. In data set [3], this molecule gave an EC50 at 48 h of 31 µM.
